{
  "source": "patent US20170050966A1",
  "about": "“INHIBITING THE TRANSIENT RECEPTOR POTENTIAL A1 ION CHANNEL” (HYDRA BIOSCIENCES, INC., priority 2014, published 2017)",
  "key": {"mTRPA1": {"molecular_target": "T1, mTRPA1 (Mus musculus, UniProt Q8BLA8)", "T1 construct": "expressed in transfected cells", "T1 sequence (Q8BLA8 whole entry)": "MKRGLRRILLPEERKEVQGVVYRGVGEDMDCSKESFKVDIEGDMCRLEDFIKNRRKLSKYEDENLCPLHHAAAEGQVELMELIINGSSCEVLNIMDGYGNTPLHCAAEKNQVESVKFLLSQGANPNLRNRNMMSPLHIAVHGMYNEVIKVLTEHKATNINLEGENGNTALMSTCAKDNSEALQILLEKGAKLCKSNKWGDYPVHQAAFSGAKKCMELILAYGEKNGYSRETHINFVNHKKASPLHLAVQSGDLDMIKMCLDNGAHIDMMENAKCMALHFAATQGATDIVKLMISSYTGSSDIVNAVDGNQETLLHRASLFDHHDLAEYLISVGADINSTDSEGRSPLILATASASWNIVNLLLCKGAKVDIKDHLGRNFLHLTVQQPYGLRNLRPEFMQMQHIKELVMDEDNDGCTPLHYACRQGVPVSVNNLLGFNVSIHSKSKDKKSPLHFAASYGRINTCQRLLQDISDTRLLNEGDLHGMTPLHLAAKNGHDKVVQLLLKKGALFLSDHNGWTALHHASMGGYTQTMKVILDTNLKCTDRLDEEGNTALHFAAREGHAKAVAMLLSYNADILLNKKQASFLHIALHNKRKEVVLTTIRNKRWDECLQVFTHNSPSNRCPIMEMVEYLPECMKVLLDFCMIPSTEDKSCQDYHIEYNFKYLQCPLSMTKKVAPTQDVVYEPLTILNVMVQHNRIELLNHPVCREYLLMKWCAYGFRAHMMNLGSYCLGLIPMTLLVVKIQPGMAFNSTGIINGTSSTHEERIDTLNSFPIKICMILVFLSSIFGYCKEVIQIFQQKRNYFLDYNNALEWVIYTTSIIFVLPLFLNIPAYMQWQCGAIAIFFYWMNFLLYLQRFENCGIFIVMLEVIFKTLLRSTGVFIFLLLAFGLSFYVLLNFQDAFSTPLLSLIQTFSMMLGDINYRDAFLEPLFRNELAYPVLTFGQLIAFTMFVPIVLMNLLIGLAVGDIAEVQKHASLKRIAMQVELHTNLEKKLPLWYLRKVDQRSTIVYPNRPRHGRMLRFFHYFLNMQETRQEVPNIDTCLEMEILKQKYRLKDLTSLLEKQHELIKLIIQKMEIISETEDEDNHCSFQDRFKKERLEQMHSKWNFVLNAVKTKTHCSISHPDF", "assay": "TRPA1 IC50, whole-cell patch clamp", "type": "cell-based", "conditions": "mTRPA1, 10 μM AITC; read-out: IC50 Inward current"}, "[1]": {"system": "CFA-induced cold hyperalgesia model in the rat", "assay": "CFA-induced cold hypersensitivity, paw withdrawal latency", "type": "in vivo", "conditions": "for Pre-RX PWL / Pre-Rx PWL: before dosing", "description": "Embodiments of the invention may be efficacious in the treatment of inflammatory pain. Compound 2 tested by the CFA-induced pain test method. […]\nBriefly, the hind paw is sensitized to cold temperature (allodynic), by administering 0.1 mL of Complete Freund's Adjuvant (CFA) is administered to the right hind paw. Three days later, the time taken for the animal to lift its CFA-injected paw is recorded compared to its un-injected normal left hind paw. […] To avoid tissue damage the maximum cut-off time is 5 minutes. Animals that are allodynic (average PWL to the first three pain behaviors <150 seconds for the CFA-injected hind paw: ˜≧50% difference between the normal and CFA-injected paw) are included in the study and subsequently randomized across treatment groups. The following day, the animals are dosed under blinded conditions. Following the 1-2 hour pre-treatment time, the post-dose PWL readings are again taken. The efficacy of the drug treatment is assessed by comparing the PWL in the drug treatment animals to those animals that receive the vehicle.\nCompound 4 was also tested using the methods disclosed.\nIn a further study, compounds of the invention were tested for efficacy at low doses for the treatment of inflammatory pain. Using the methods disclosed in above, Compound 2 was dosed at ranges of 0.1 to 1 mg/kg PO. The positive comparator TRPA1 antagonist Compound A was also tested at a dose of 150 mg/kg IP. […] Oral drug delivery was accomplished using a 20-gauge 1½″ oral gavage needle and a 5 cc syringe. Fed rats received a single oral gavage of Compound 2 at 0.03, 0.1, 0.3, or 1 mg/kg or Vehicle, 2 hours prior to testing"}, "sprague-dawley rats": {"system": "sprague-dawley rats", "assay": "Hepatotoxicity safety profile, serum biomarkers", "type": "in vivo", "conditions": "for ALP d28 / ALT d28 / AST d28 / GGT d28: day 28", "description": "Compound 2 in the vehicle (0.5% methylcellulose [400 cps]) was administered orally by gavage once daily for a minimum of 28 consecutive days to 3 groups of sprague-dawley rats from Charles River Laboratories. Each group received one dosage level. Dosage levels were 30, 100, and 300 mg/kg/day for each group. […] The dose volume was 10 ml/kg for all groups. Hepatoxicity was measured via the serum biomarkers of alanine aminotransferease [ALT], aspartate aminotransferase [AST], alkaline phosphastase [ALP] and gamma-glutamyl transferase [GGT] which represent hepatotoxicity or bile duct injury."}, "[2]": {"assay": "Solubility in simulated gastrointestinal fluid (SGF)", "type": "physicochemical", "conditions": "simulated gastric fluid, thermodynamic from solid, HCl 0.1N at 25° C.", "description": "Solubility was further assessed in simulated gastrointestinal fluid (SGF) (HCl 0.1N at 25° C.). Briefly, compound was agitated for 30 hours and sampled, centrifuged, and analyzed by UPLC."}, "[3]": {"assay": "Plasma protein binding, equilibrium dialysis", "type": "in vitro ADME", "conditions": "pooled K2EDTA plasma, read-out: Mean % Bound ± SD (converted)", "description": "With this method, free compound is separated from protein-bound compound by dialysis across a semi-permeable membrane.\nThe protein binding was tested at a concentration of 1 μM. Pooled human, cynomolgus monkey, dog, and rat K2EDTA plasma was thawed and centrifuged at 2000×g for 10 minutes at 4° C. to remove particulates; any lipid on the top of the supernatant was also removed by aspiration. The plasma was warmed to 37° C. for 10 minutes before use. Test compounds were spiked into 2 ml plasma in a polypropylene plate to a final concentration of 1 μM. Triplicate 400 μl aliquots of spiked plasma were transferred into the Thermo RED dialysis units and dialyzed against 600 μl of PBS buffer. […] After 6 hours dialysis, triplicate 50 μl aliquots were removed from the RED plate, matrix-matched with either PBS buffer or blank plasma, as appropriate, and quenched with 4 volumes of ACN containing an internal standard. The extracted samples were then centrifuged at 2000×g for 5 minutes at 4° C. The supernatant (50 μl) was removed and diluted with 100 μl water prior to LC/MS/MS bioanalysis."}, "CYP2C9": {"molecular_target": "CYP2C9 (Homo sapiens, UniProt P11712)", "sequence (P11712 whole entry)": "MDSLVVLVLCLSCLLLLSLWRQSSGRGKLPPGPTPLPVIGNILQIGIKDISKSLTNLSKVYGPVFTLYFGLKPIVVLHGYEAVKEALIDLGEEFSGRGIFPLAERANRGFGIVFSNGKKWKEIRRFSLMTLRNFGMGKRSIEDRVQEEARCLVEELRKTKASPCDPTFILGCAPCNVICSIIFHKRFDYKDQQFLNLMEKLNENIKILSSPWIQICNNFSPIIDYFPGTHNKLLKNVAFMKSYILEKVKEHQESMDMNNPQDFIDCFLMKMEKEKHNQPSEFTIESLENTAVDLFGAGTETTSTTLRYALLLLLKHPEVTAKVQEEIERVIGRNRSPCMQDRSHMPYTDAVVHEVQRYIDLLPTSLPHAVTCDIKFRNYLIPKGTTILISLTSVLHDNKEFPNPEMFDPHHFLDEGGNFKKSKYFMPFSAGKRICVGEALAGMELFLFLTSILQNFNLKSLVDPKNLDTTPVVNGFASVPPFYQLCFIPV", "assay": "in vitro", "conditions": "probe Diclofenac"}, "[4]": {"assay": "Oral PK and bioavailability of micronized Compound 2 suspension", "type": "in vivo, Sprague-Dawley rats", "description": "(§1) Additional studies were conducted with micronized Compound 2 in rat, dogs (beagles), and cynomolgus monkeys. Animals received a 10 mg/kg dose oral dose of compound formulated as a suspension in 0.5% methyl cellulose in water for injection at a target concentration of 1 mg/mL, and administered a dose volume of 10 mL/kg by oral gavage in rats or fasted dogs and via oral delivery in fasted cynomolgus monkeys. The % F for the rats in these studies was 85%, 36% for the dogs, and 19% for the monkeys. FIG. 11 depicts the pharmacokinetic profile for these species.\nSeveral in vivo studies were performed to characterize the bioavailability of Compound 2. In Sprague-Dawley rats, a single oral dose of 10 mg/kg to 1000 mg/kg of Compound 2 were compared in a series of experiments. Compound 2 used in these studies was recrystallized from ethanol and micronized."}, "[5]": {"assay": "Oral PK and bioavailability of micronized Compound 2 suspension", "type": "in vivo", "conditions": "fasted cynomolgus monkeys", "description": "as §1\nThree studies were conducted in fasted cynomolgus monkeys to determine the PK profile and bioavailability of a suspension formulation of Compound 2. Three monkeys were administered a suspension containing 10 mg/kg micronized Compound 2 by oral gavage. Monkeys were bled before dosing and at 0.25, 0.50, 1, 2, 4, 6, 12, and 24 hours post-dosing. Compound 2 plasma levels were determined by LC/MS/MS. Additional studies were conducted to evaluate the PK profile at higher dose levels of Compound 2 administered to fasted monkeys as an oral suspension. Blood samples were collected prior to dosing and up to 24 hours post-dosing. An additional 48 hour blood sample was collected from monkeys dosed with 300 mg/kg Compound 2. Plasma levels of Compound 2 were determined by LC/MS/MS."}, "[6]": {"conditions": "1 mg/kg PO, suspension in 0.5% methylcellulose"}},
  "note": "Read-outs that look alike come from different tables or passages of the source.",
  "data": [
    {"smiles": "C[C@@H](C(=O)Nc1ccnc(-c2cnc(N3CCC[C@H]3C(F)(F)F)nc2)n1)n1cnc2c1c(=O)n(C)c(=O)n2C", "note": "[Compound 2, (S)-2-(1,3-dimethyl-2,6-dioxo-2,3-dihydro-1H-purin-7(6H)-yl)-N-(2′-((S)-2-(trifluoromethyl)pyrrolidin-1-yl)-[2,5′-bipyrimidin]-4-yl)propanamide]", "values": [
      {"measurement": "IC50", "setting": "mTRPA1", "value": "26.6 ± 3.3", "unit": "nM"},
      {"measurement": "reversal of CFA-induced cold hypersensitivity", "setting": "[1]; 0.03 mg/kg PO", "value": "did not exert a statistically significant effect"},
      {"measurement": "PWL Change", "setting": "[1]; 0.03 mpk PO, 2 hours prior to testing", "value": 14.8, "unit": "s"},
      {"measurement": "reversal of CFA-induced cold hypersensitivity", "setting": "[1]; 0.1, 0.3, and 1 mg/kg PO", "value": "significant reversal of CFA-induced cold hypersensitivity"},
      {"measurement": "PWL Change", "setting": "[1]; 0.1 mpk PO, 2 hours prior to testing", "value": 43.1, "unit": "s"},
      {"measurement": "Post RX PWL", "setting": "[1]; 0.3 mpk PO", "value": 197.7, "unit": "s"},
      {"measurement": "Pre-RX PWL", "setting": "[1]; 0.3 mpk PO group", "value": 104.0, "unit": "s"},
      {"measurement": "PWL Change", "setting": "[1]; 0.3 mpk PO, 2 hours prior to testing", "value": 74.1, "unit": "s"},
      {"measurement": "Post RX PWL", "setting": "[1]; 1 mpk PO", "value": 243.0, "unit": "s"},
      {"measurement": "Pre-RX PWL", "setting": "[1]; 1 mpk PO group", "value": 103.7, "unit": "s"},
      {"measurement": "PWL Change", "setting": "[1]; 1 mpk PO, 2 hours prior to testing", "value": 104.8, "unit": "s"},
      {"measurement": "Post RX PWL", "setting": "[1]; 3 mpk PO", "value": 249.6, "unit": "s"},
      {"measurement": "Pre-RX PWL", "setting": "[1]; 3 mpk PO group", "value": 103.9, "unit": "s"},
      {"measurement": "Post RX PWL", "setting": "[1]; 10 mpk PO", "value": 237.3, "unit": "s"},
      {"measurement": "Pre-RX PWL", "setting": "[1]; 10 mpk PO group", "value": 104.0, "unit": "s"},
      {"measurement": "effect on cold hypersensitivity", "setting": "[1]; oral doses of 0.3 to 10 mg/kg", "value": "attenuated cold hypersensitivity"},
      {"measurement": "ALP d28", "setting": "sprague-dawley rats; 30 mg/kg/day oral", "value": 168.0, "unit": "U/L"},
      {"measurement": "ALT d28", "setting": "sprague-dawley rats; 30 mg/kg/day oral", "value": 33.0, "unit": "U/L"},
      {"measurement": "AST d28", "setting": "sprague-dawley rats; 30 mg/kg/day oral", "value": 98.0, "unit": "U/L"},
      {"measurement": "GGT d28", "setting": "sprague-dawley rats; 30 mg/kg/day oral", "value": 0.0, "unit": "U/L"},
      {"measurement": "ALP d28", "setting": "sprague-dawley rats; 100 mg/kg/day oral", "value": 185.0, "unit": "U/L"},
      {"measurement": "ALT d28", "setting": "sprague-dawley rats; 100 mg/kg/day oral", "value": 34.0, "unit": "U/L"},
      {"measurement": "AST d28", "setting": "sprague-dawley rats; 100 mg/kg/day oral", "value": 100.0, "unit": "U/L"},
      {"measurement": "GGT d28", "setting": "sprague-dawley rats; 100 mg/kg/day oral", "value": 0.0, "unit": "U/L"},
      {"measurement": "ALP d28", "setting": "sprague-dawley rats; 300 mg/kg/day oral", "value": 163.0, "unit": "U/L"},
      {"measurement": "ALT d28", "setting": "sprague-dawley rats; 300 mg/kg/day oral", "value": 43.0, "unit": "U/L"},
      {"measurement": "AST d28", "setting": "sprague-dawley rats; 300 mg/kg/day oral", "value": 115.0, "unit": "U/L"},
      {"measurement": "GGT d28", "setting": "sprague-dawley rats; 300 mg/kg/day oral", "value": 0.0, "unit": "U/L"},
      {"measurement": "serum biomarkers of hepatotoxicity (ALT, AST, ALP, GGT)", "setting": "sprague-dawley rats; sprague-dawley rats, oral once daily for 28 days", "value": "did not elevate the serum biomarkers up to and including a dose of 300 mg/kg"},
      {"measurement": "solubility at 30 h", "setting": "[2]", "value": 1050, "unit": "µg/mL"},
      {"measurement": "fraction unbound at 6 h, 1 μM", "setting": "[3]; Human plasma", "value": 0.015},
      {"measurement": "fraction unbound at 6 h, 1 μM", "setting": "[3]; Sprague dawley rat plasma", "value": 0.047},
      {"measurement": "inhibition at 10 µM", "setting": "CYP2C9", "value": 22, "unit": "%"},
      {"measurement": "Exposures based on AUC and Cmax versus dose", "setting": "[4]; Sprague-Dawley rats, single oral dose 10 mg/kg to 1000 mg/kg", "value": "increased with doses up to 1000 mg/kg"},
      {"measurement": "bioavailability", "setting": "[4]; Sprague-Dawley, rat, plasma, rats, 10 mg/kg oral, micronized suspension in 0.5% methyl cellulose", "value": 85, "unit": "%"},
      {"measurement": "bioavailability", "setting": "[5]; cynomolgus monkey, plasma, 10 mg/kg oral, micronized suspension", "value": 19, "unit": "%"},
      {"measurement": "Exposures on an AUC and Cmax basis versus dose", "setting": "[5]; oral suspension", "value": "increased with doses up to 1000 mg/kg"}
    ]},
    {"smiles": "C[C@@H](C(=O)Nc1ccnc(-c2cnc(N3CCC[C@@H]3C(F)(F)F)nc2)n1)n1cnc2c1c(=O)n(C)c(=O)n2C", "note": "[Compound 4, (S)-2-(1,3-dimethyl-2,6-dioxo-2,3-dihydro-1H-purin-7(6H)-yl)-N-(2′-((R)-2-(trifluoromethyl)pyrrolidin-1-yl)-[2,5′-bipyrimidin]-4-yl)propanamide]", "values": [
      {"measurement": "Pre-Rx PWL", "setting": "[1]; 1 mg/kg PO group, suspension in 0.5% methylcellulose", "value": 101.7, "unit": "s"},
      {"measurement": "PWL Change", "setting": "[1]; [6]", "value": 148.6, "unit": "s"},
      {"measurement": "Post-Rx PWL", "setting": "[1]; [6]", "value": 250.3, "unit": "s"},
      {"measurement": "Pre-Rx PWL", "setting": "[1]; 3 mg/kg PO group, suspension", "value": 101.1, "unit": "s"},
      {"measurement": "PWL Change", "setting": "[1]; 3 mg/kg PO, suspension", "value": 140.9, "unit": "s"},
      {"measurement": "Post-Rx PWL", "setting": "[1]; 3 mg/kg PO, suspension", "value": 242.1, "unit": "s"},
      {"measurement": "Pre-Rx PWL", "setting": "[1]; 10 mg/kg PO group, suspension", "value": 101.5, "unit": "s"},
      {"measurement": "PWL Change", "setting": "[1]; 10 mg/kg PO, suspension", "value": 132.6, "unit": "s"},
      {"measurement": "Post-Rx PWL", "setting": "[1]; 10 mg/kg PO, suspension", "value": 234.1, "unit": "s"}
    ]}
  ]
}
